This passage reports IC50 results from patent US20260184708A1, “PYRIDAZINONES AND METHODS OF USE THEREOF” (GFB (ABC), LLC, priority 2017, published 2026).

The target of the assay is T1, TRPC5 (Homo sapiens, UniProt Q9UL62).
T1 construct: expressed in transfected cells; host or cells: HEK 293
T1 sequence (Q9UL62 1-973): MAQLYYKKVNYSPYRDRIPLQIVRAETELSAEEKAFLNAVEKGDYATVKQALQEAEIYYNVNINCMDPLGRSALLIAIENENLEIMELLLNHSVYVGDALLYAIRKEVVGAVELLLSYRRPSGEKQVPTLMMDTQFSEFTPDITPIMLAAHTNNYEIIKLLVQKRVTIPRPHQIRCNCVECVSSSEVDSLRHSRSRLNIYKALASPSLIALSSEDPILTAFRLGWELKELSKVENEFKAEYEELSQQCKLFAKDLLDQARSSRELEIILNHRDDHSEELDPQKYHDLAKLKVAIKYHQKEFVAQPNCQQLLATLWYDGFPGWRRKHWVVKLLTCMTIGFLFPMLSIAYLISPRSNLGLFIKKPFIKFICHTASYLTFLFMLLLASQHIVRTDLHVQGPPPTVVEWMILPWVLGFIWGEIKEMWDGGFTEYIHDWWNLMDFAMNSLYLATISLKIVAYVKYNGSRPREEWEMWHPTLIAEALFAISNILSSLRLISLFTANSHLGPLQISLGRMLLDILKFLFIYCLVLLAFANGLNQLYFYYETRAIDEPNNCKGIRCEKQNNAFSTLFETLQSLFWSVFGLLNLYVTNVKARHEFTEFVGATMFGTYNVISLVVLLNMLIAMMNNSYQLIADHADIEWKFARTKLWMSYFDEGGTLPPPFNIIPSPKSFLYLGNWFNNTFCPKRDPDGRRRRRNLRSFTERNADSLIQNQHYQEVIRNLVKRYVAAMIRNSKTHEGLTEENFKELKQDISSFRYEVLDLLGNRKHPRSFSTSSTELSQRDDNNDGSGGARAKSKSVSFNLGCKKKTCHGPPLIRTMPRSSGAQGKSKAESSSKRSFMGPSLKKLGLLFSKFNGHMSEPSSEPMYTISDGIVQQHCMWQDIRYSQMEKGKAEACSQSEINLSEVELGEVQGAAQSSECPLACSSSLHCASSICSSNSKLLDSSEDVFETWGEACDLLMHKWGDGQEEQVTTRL
The assay is described as follows: TRPC5 automated patch clamp assay (Qpatch), current block after rosiglitazone stimulation. The class given is cell-based. The conditions noted are these: HEK293 cells overexpressing TRPC5, rosiglitazone stimulation. How it is done:
HEK 293 cells expressing human TRPC5 were harvested, re-suspended in serum free medium, and added to the automated platform and used within 2-3 hours. Internal and external physiological solutions were freshly prepared prior to the assay. The external solution contained: 145 mM NaCl, 4 mM KCl, 2 mM CaCl2), 1 mM MgCl2, 10 mM HEPES, 10 mM glucose, pH 7.4 with NaOH and 300 mOsm/L. The internal solution contained 120 mM L-aspartic acid, 120 mM CsOH·H2O, 20 mM CsCl, 2 mM MgCl2, 8.8 mM CaCl2), 10 mM EGTA, 10 mM HEPES, 10 mM Glucose, 0.1 mM GTP and 2 mM Na2ATP; pH 7.2 with CsOH and 290 mOsm/L. The free internal Ca2+ concentration was buffered to 1 μM.
The automated electrophysiological platform QPatch 16 from Sophion (Denmark) was used to carry out the compounds profiling. The series resistance and quality of seals were continuously monitored during the experiments. Data was analyzed using Sophion QPatch assay software 5.6 (Odense). IC50 values were calculated using a least squares regression algorithm (Hill equation).
To monitor the ion currents, a voltage ramp from −100 mV to +100 mV, over 300 ms, was applied every 10 seconds, from a holding potential of −60 mV.
After recording for a minimum of 60 seconds control period, Rosiglitazone (30 uM), was applied to activate the channel.
For orientation: The patch-clamp technique gives a direct electrical read-out from membranes.

The mark [1] stands for this setting: Table 5, 80 mV, read-out: TRPC5_QP_ XC50_80.
The mark [2] stands for this setting: Table 5, 100 mV, read-out: TRPC5_QP_ XC50_100.
Setting [3] is: Table 4, 80 mV, read-out: TRPC5_QP_ XC50_80.
[4] abbreviates: Table 4, 100 mV, read-out: TRPC5_QP_ XC50_100.
Where [5] appears, read: 80 mV, read-out: TRPC5_QP XC50_80.
Where [6] appears, read: 100 mV, read-out: TRPC5_QP XC50_100.
[7] abbreviates: Table 3, 80 mV, read-out: TRPC5_QP_ XC50_80.
The mark [8] stands for this setting: Table 3, 100 mV, read-out: TRPC5_QP_ XC50_100.

Like-named read-outs stand apart in the source and are kept apart here.

Turning to `O=C1CN(c2cn[nH]c(=O)c2Cl)CCN1Cc1cccnc1Oc1ccccc1`, the IC50 is, setting by setting: under setting [1], 5 to 10 µM; under setting [2], 5 to 10 µM.
Consider `Cn1ncc2c(CN3CCN(c4cn[nH]c(=O)c4Cl)CC3)cccc21`, for which the IC50 runs as follows: under setting [3], 10 to 500 µM; under setting [4], 10 to 500 µM.
As to `O=C1CN(c2cn[nH]c(=O)c2Cl)CCN1Cc1ccc(F)cc1C(F)(F)F`, the IC50 is, setting by setting: under setting [1], 1e-05 to 1 µM; under setting [2], 1e-05 to 1 µM.
For the compound `O=c1[nH]ncc(N2C3CCC2CN(Cc2ccccc2)C3)c1Br`, the IC50 lay in the range of 10 to 500 µM under setting [5] and 10 to 500 µM under setting [6].
On to `Cc1n[nH]c(=O)c(Cl)c1N1CCN(Cc2ccccc2OC(F)(F)F)C(=O)C1`, for which the IC50 lay in the range of 5 to 10 µM under setting [1] and 5 to 10 µM under setting [2].
Turning to `O=c1[nH]ncc(N2CCN(Cc3ccc(Cl)cc3F)CC2)c1Cl`, the IC50 lay in the range of 5 to 10 µM under setting [7] and 10 to 500 µM under setting [8].
Take `O=C1CN(c2cn[nH]c(=O)c2Cl)CCN1Cc1ccc(F)cc1F` [drawing 686]: the IC50 by setting is: under setting [7], 1 to 5 µM; under setting [8], 1 to 5 µM.
As for `O=c1[nH]ncc(N2CCN(Cc3cccc4[nH]ncc34)CC2)c1Cl`, the IC50 by setting is: under setting [3], 10 to 500 µM; under setting [4], 10 to 500 µM.
Consider `Cc1n[nH]c(=O)c(Cl)c1N1CCN(Cc2ccc(F)cc2C(F)(F)F)C(=O)C1`, for which the IC50 under setting [1] was 5 to 10 µM and the IC50 under setting [2] is 5 to 10 µM.
Regarding `O=C1CN(c2cn[nH]c(=O)c2Cl)CCN1Cc1ccccc1-c1ccccc1`, the IC50 by setting is: under setting [3], 1 to 5 µM; under setting [4], 1 to 5 µM.
With `Cc1cc(F)ccc1CN1CCN(c2cn[nH]c(=O)c2Cl)CC1=O`, the IC50 was 1 to 5 µM under setting [3] and 1 to 5 µM under setting [4].
On to `Cc1cc(F)ccc1CN1CCN(c2n[nH]c(=O)cc2C)CC1`, for which the IC50 runs as follows: under setting [3], 10 to 500 µM; under setting [4], 10 to 500 µM.
Regarding `CN(C)C(=O)CN1CCN(c2cn[nH]c(=O)c2Br)CC1`, the IC50 under setting [5] is 10 to 500 µM and the IC50 under setting [6] fell in the range of 10 to 500 µM.
With `C[C@@H]1CN(Cc2ccccc2C(F)(F)F)CCN1c1cn[nH]c(=O)c1Cl` [drawing 716], the IC50 is 1 to 5 µM under setting [3] and 1 to 5 µM under setting [4].
For the compound `Cc1cc(F)ccc1CN1CCN(c2cc(=O)[nH][nH]c2=O)CC1`, the IC50 was in the range of 10 to 500 µM under setting [3] and 10 to 500 µM under setting [4].
As for `O=C1CN(c2cn[nH]c(=O)c2Cl)CCN1Cc1ccc(F)cc1`, the IC50 by setting is: under setting [1], 5 to 10 µM; under setting [2], 5 to 10 µM.
`COc1c(N2CCN(Cc3ccccc3C)C(=O)C2)cn[nH]c1=O`: the IC50 by setting is: under setting [7], 10 to 500 µM; under setting [8], 10 to 500 µM.
`CCCOc1n[nH]c(=O)cc1N1CCN(Cc2ccc(F)cc2C)CC1`: the IC50 under setting [1] lay in the range of 10 to 500 µM and the IC50 under setting [2] was 10 to 500 µM.
For `CN(C)C(=O)CN1CCN(c2cn[nH]c(=O)c2Cl)CC1` [drawing 673], the IC50 was 10 to 500 µM under setting [7] and 10 to 500 µM under setting [8].
Turning to `O=C1CN(c2cn[nH]c(=O)c2Cl)CCN1CC1CCC(F)(F)CC1`, the IC50 reads like this: under setting [1], 5 to 10 µM; under setting [2], 5 to 10 µM.
For the compound `Cc1ccccc1CN1CCN(c2cn[nH]c(=O)c2C2CC2)CC1=O`, the IC50 reads like this: under setting [3], 1 to 5 µM; under setting [4], 1 to 5 µM.
`Cc1cc(F)ccc1CN1CCN(c2c(Br)n[nH]c(=O)c2Cl)CC1`: the IC50 by setting is: under setting [1], 10 to 500 µM; under setting [2], 10 to 500 µM.
For the compound `Cc1ccccc1CN1CCN(c2cn[nH]c(=O)c2Br)CC1`, the IC50 lay in the range of 1 to 5 µM under setting [5] and 1 to 5 µM under setting [6].
`CC[C@H](c1ccccc1)N1CCN(c2cn[nH]c(=O)c2Cl)CC1`: the IC50 runs as follows: under setting [1], 1 to 5 µM; under setting [2], 1 to 5 µM.
With `O=C1CN(c2cn[nH]c(=O)c2Cl)CCN1Cc1ccc(C(F)(F)F)cc1`, the IC50 is 1e-05 to 1 µM under setting [3] and 1e-05 to 1 µM under setting [4].
Consider `Cc1ccccc1CN1CCN(c2cn[nH]c(=O)c2Cl)CC1`, for which the IC50 under setting [7] lay within 1 to 5 µM and the IC50 under setting [8] was in the range of 1 to 5 µM.
As to `O=c1[nH]ncc(N2CCN(Cc3ccccc3C(F)(F)F)CC2)c1Cl` [drawing 694], the IC50 reads like this: under setting [7], 1 to 5 µM; under setting [8], 1 to 5 µM.
For the compound `CC(c1ccccc1)n1cnc2c1CCN(c1cn[nH]c(=O)c1Cl)C2` (centres unmarked), the IC50 runs as follows: under setting [1], 1 to 5 µM; under setting [2], 1 to 5 µM.
